Here are results for eight compounds from ChEMBL document CHEMBL1201862, “PubChem BioAssay data set” (2004).

Among the test systems are A549; CAKI-1; CCRF-CEM; COLO 205; HOP-92; IGROV-1; K562; M14; MOLT-4; NCI-H226; NCI-H460; OVCAR-3; RXF 393; SF-268; SK-MEL-28; SNB-19; SR.
What all share (test): NCI-60 cell line screen, 48 h

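48-hour exposure; five concentrations; linearly interpolated endpoints. GI50 marks 50% less growth.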 Activity calls are given as the source filed them. Rule as the data show it: active = GI50 up to about 1.1 µM and inactive = higher.

Regarding `O=C(Nc1c(Cl)cc([N+](=O)[O-])cc1Cl)C(=O)C(C(=O)c1ccncc1)C1OC(=O)c2ccccc21` (stereo not given), the GI50 in the test with A549, with CAKI-1, with CCRF-CEM, with COLO 205, with HOP-92 and in the test with IGROV-1 was > 100 µM (inactive) throughout. Further, the GI50 with K562, in the test with M14, with MOLT-4, in the test with NCI-H226, with NCI-H460 and with OVCAR-3 was > 100 µM (inactive) throughout. The GI50 in the test with RXF 393, in the test with SF-268, with SK-MEL-28, with SNB-19 and in the test with SR was > 100 µM (inactive) each time.

On to `O=c1c2cc(Cl)ccc2sc2cccc(Cl)c12`, for which the GI50 in the test on A549, in the test on CAKI-1, in the test with CCRF-CEM, in the test with COLO 205, in the test with HOP-92 and in the test on IGROV-1 was > 100 µM (inactive) in each case. Further, the GI50 in the test with K562, with M14, in the test with MOLT-4, with NCI-H226, in the test on NCI-H460 and in the test on OVCAR-3 was > 100 µM (inactive) in each case. Besides, the GI50 with RXF 393, in the test with SF-268, in the test on SK-MEL-28, in the test with SNB-19 and with SR was > 100 µM (inactive) each time.

As for `Cc1cc2c(cc1C)[n+]([O-])c(C(=O)CC(=O)C(=O)Nc1ccccc1C(C)C)c(C)[n+]2[O-]`, the GI50 in the test with A549, in the test on CAKI-1, with CCRF-CEM, with COLO 205, with HOP-92 and in the test on IGROV-1 was > 100 µM (inactive) in each case. In addition, the GI50 in the test with K562, in the test on M14, in the test on MOLT-4, in the test with NCI-H226, in the test with NCI-H460 and in the test with OVCAR-3 was > 100 µM (inactive) in each case. For the same compound, the GI50 in the test on RXF 393, in the test on SF-268, in the test on SK-MEL-28, in the test on SNB-19 and in the test on SR was > 100 µM (inactive) in each case.

As to `COc1ccccc1/C=C1\CCC(CCN(C)C)(C2=CCCC2)C1=O` (stereo not given), the GI50 in the test with A549 is 23.9 µM (inactive); with CAKI-1 it was 20.9 µM (inactive); in the test with CCRF-CEM, 16.5 µM (inactive); in the test on COLO 205, 10.2 µM (inactive); in the test with HOP-92 it was 16.9 µM (inactive); in the test with IGROV-1, 14.1 µM (inactive). Moreover, the GI50 in the test with K562 was 11.1 µM (inactive); in the test with M14, 15.5 µM (inactive); in the test with MOLT-4, 20.7 µM (inactive); in the test with NCI-H226 it was 19.5 µM (inactive); in the test on NCI-H460, 14.8 µM (inactive); in the test with OVCAR-3, 16.9 µM (inactive). Moreover, the GI50 is 12.8 µM (inactive) with RXF 393; 19.4 µM (inactive) in the test with SF-268; 17.7 µM (inactive) in the test on SK-MEL-28; 16.1 µM (inactive) with SNB-19; 31.6 µM (inactive) in the test on SR.

Regarding `O=C(c1ccc(Cl)cc1)N(C(=S)N1CCN(c2ccccc2)CC1)C1CCCCC1`, the GI50 in the test on A549, in the test on CAKI-1, in the test on CCRF-CEM, with COLO 205, in the test with HOP-92 and in the test on IGROV-1 was > 100 µM (inactive) throughout. The GI50 in the test with K562 was 58.2 µM (inactive); in the test with M14, > 100 µM (inactive); with MOLT-4, 54.2 µM (inactive); in the test with NCI-H226 it was 1.03 µM (active); with NCI-H460, > 100 µM (inactive); in the test on OVCAR-3 it was > 100 µM (inactive). In addition, the GI50 in the test on RXF 393 was > 100 µM (inactive); with SF-268, > 100 µM (inactive); in the test with SK-MEL-28, > 100 µM (inactive); with SNB-19 it was > 100 µM (inactive); in the test with SR, 67.6 µM (inactive).

Consider `COc1ccc(/C=C(\C(C)=O)C(=O)Nc2ccccc2)cc1`, for which the GI50 with A549, with CAKI-1, in the test on CCRF-CEM, with HOP-92, in the test on IGROV-1 and in the test on K562 was > 100 µM (inactive) throughout. In addition, the GI50 with M14, in the test on MOLT-4, in the test with NCI-H226, in the test with NCI-H460, in the test with OVCAR-3 and in the test with RXF 393 was > 100 µM (inactive) throughout. For the same compound, the GI50 with SF-268, in the test with SK-MEL-28, in the test on SNB-19 and in the test with SR was > 100 µM (inactive) in each case.

Turning to `O=[N+]([O-])c1ccc(Cl)c(C2CC(c3cccc4ccccc34)=Nc3ccccc3S2)c1` (stereo not given), the GI50 was 28.7 µM (inactive) in the test on A549; 21.9 µM (inactive) with CAKI-1; 3.43 µM (inactive) in the test with CCRF-CEM; 61.2 µM (inactive) with COLO 205; 2.64 µM (inactive) in the test on HOP-92; 48.5 µM (inactive) in the test with IGROV-1. Also, the GI50 in the test with K562 is 6.31 µM (inactive); in the test on M14, 20.6 µM (inactive); with MOLT-4 it was 6.75 µM (inactive); in the test on NCI-H226, 27.6 µM (inactive); with NCI-H460 it was 26.5 µM (inactive); with OVCAR-3, 16.3 µM (inactive). For the same compound, the GI50 in the test with RXF 393 was 8.91 µM (inactive); in the test with SF-268, 18.7 µM (inactive); in the test on SK-MEL-28, 27.3 µM (inactive); in the test on SNB-19 it was 44.4 µM (inactive); in the test on SR, 3.58 µM (inactive).

In the case of `O=C(N/C=C1\C(=O)Oc2ccccc2C1=O)Nc1ccccc1`, the GI50 in the test with A549 was 53.1 µM (inactive); in the test with CAKI-1, 15.1 µM (inactive); in the test with CCRF-CEM, > 100 µM (inactive); with COLO 205, > 100 µM (inactive); in the test on HOP-92, 25.8 µM (inactive); with IGROV-1 it was 51.2 µM (inactive). Moreover, the GI50 in the test on K562 is > 100 µM (inactive); with M14, 52.8 µM (inactive); with MOLT-4, > 100 µM (inactive); in the test on NCI-H226 it was 23.5 µM (inactive); in the test with NCI-H460, 63.8 µM (inactive); with OVCAR-3 it was 75 µM (inactive). For the same compound, the GI50 with RXF 393 is 16.7 µM (inactive); in the test with SF-268, 31.8 µM (inactive); in the test with SK-MEL-28, 87.1 µM (inactive); with SNB-19 it was 29 µM (inactive); in the test with SR it was 69 µM (inactive).
